Patent US12552772B2, “2-pyrazole anilines and related analogs for inhibiting YAP/TAZ-TEAD” (KATHOLIEKE UNIVERSITEIT LEUVEN, priority 2021, dated 2026)

What was measured:
Type in all cases: cell-based
NCI-H2052 = test: Mesothelioma cell line proliferation assay (ATPlite), NCI-H2052; conditions: NCI-H2052 cells, 6 days, ATPlite cell viability
Description: (§1) Mesothelioma cell lines, NCI-H226 and NCI-H2052 (all sourced from the ATCC cell culture collection) are plated in 96-well plates (Corning® 96 Well White Polystyrene Microplate clear flat bottom, white polystyrene (TC-Treated)), at 1500 cells/well in full medium (RPMI 1640 ATCC modification with L-glutamine, HEPES, Phenol Red, Sodium Pyruvate, High glucose, Low sodium bicarbonate and 10% fetal bovine serum). Cells are incubated overnight at 37° C. in an incubator with 5% CO2. Then compounds, dissolved in DMSO, are added in dose-response. Cells are incubated with compound dilutions for another 6 days at 37° C. in an incubator with 5% CO2. Cell viability is quantitated using the ATPlite kit (Perkin-Elmer) and the luminescence is read-out using an Envision instrument (Perkin-Elmer). The amount of relative light units produced using the ATPlite kit is used to calculated percent of inhibition.
(§2) The activities of example compounds tested are depicted in the table below. The activity ranges A, B and C refer to EC50 values in the mesothelioma cell line proliferation assay as described as follows: “A”: EC50<1 μM; “B”: 1 μM s EC50≤10 μM and “C”: EC50>10 μM. NT: not tested.

[1] = tested on: YAP/TAZ-TEAD transcription; test: Reporter gene assay for measuring the inhibition of YAP/TAZ-TEAD transcription (TEAD-responsive element luciferase reporter in Hek293T cells); conditions: 24 hours incubation
Summary of the method: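 Percent inhibition, scaled between vehicle (0%) and a positive control inhibitor (100%), came from SteadyLite luciferase signal after 24 h compound exposure at 37 °C/5% CO2. Cells: Hek293T transiently carrying a TEAD-responsive luciferase reporter; EC50 derived.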

NCI-H226 = test: Mesothelioma cell line proliferation assay (ATPlite), NCI-H226; conditions: NCI-H226 cells, 6 days, ATPlite cell viability
Description: as §1, §2

Compound	EC50 (NCI-H2052; Homo sapiens, NCI-H2052, 144 h)	EC50 ([1]; Homo sapiens, HEK-293T)	EC50 (NCI-H226; Homo sapiens, 144 h)	EC50 (NCI-H2052)	EC50 [1]	EC50 (NCI-H226)
C=CC(=O)N1CCC(c2ccc(-c3ccc(F)cc3)cc2-c2ccn(C(F)F)n2)C1 (stereo not shown) [Cpd. No. 261-En1, 1-(3-(3-(1-(difluoromethyl)-1H-pyrazol-3-yl)-4′-fluoro-[1,1′-biphenyl]-4-yl)pyrrolidin-1-yl)prop-2-en-1-one]	–	–	–	1000 to 10000 nM	< 1000 nM	< 1000 nM
C=CC(=O)N1CCC(c2ccc(-c3ccc(F)cc3)cc2-c2ccn(C(F)F)n2)C1 (stereo not shown) [Cpd. No. 261-En2, 1-(3-(3-(1-(difluoromethyl)-1H-pyrazol-3-yl)-4′-fluoro-[1,1′-biphenyl]-4-yl)pyrrolidin-1-yl)prop-2-en-1-one]	–	–	–	> 10000 nM	< 1000 nM	< 1000 nM
C=CC(=O)N1CCC(c2cnc(-c3ccc(F)cc3)cc2-c2ccn(C(F)F)n2)C1 (stereo not shown) [Cpd. No. 262-En1, 1-(3-(4-(1-(difluoromethyl)-1H-pyrazol-3-yl)-6-(4-fluorophenyl)pyridin-3-yl)pyrrolidin-1-yl)prop-2-en-1-one]	–	–	–	1000 to 10000 nM	< 1000 nM	< 1000 nM
C=CC(=O)N1CCC(c2cnc(-c3ccc(F)cc3)cc2-c2ccn(C(F)F)n2)C1 (stereo not shown) [Cpd. No. 262-En2, 1-(3-(4-(1-(difluoromethyl)-1H-pyrazol-3-yl)-6-(4-fluorophenyl)pyridin-3-yl)pyrrolidin-1-yl)prop-2-en-1-one]	–	–	–	> 10000 nM	< 1000 nM	< 1000 nM
C=CC(=O)NCCNc1ccc(-c2ccccc2)cc1-c1ccn(Cc2cccnc2)n1 [compound 075, N-(2-((3-(1-(pyridin-3-ylmethyl)-1H-pyrazol-3-yl)-[1,1′-biphenyl]-4-yl)amino)ethyl)acrylamide]	–	1000 to 20000 nM	< 1000 nM	–	–	–
CNS(=O)(=O)CCNc1ccc(-c2cccc(F)c2)cc1-c1ccn(Cc2cccnc2)n1 [compound 088]	–	< 1000 nM	> 10000 nM	–	–	–
CNS(=O)(=O)CCNc1ccc(-c2ccc(Cl)cc2)cc1-c1ccn(C)n1 [compound 121, 2-((4′-chloro-3-(1-methyl-1H-pyrazol-3-yl)-[1,1′-biphenyl]-4-yl)amino)-N-methylethane-1-sulfonamide]	–	< 1000 nM	1000 to 10000 nM	–	–	–
C=CC(=O)NCc1ccc(-c2ccccc2)cc1-c1ccn(C)n1 [compound 135, N-((3-(1-methyl-1H-pyrazol-3-yl)-[1,1′-biphenyl]-4-yl)methyl)acrylamide]	–	< 1000 nM	< 1000 nM	–	–	–
CCC(=O)NCc1cnc(-c2ccc(F)cc2)cc1-n1ncc(C)n1 [compound 245, N-((6-(4-fluorophenyl)-4-(4-methyl-2H-1,2,3-triazol-2-yl)pyridin-3-yl)methyl)propionamide]	–	< 1000 nM	–	–	–	–
C=CC(=O)NCc1cnc(-c2ccc(F)cc2)cc1-n1ccc(C(F)(F)F)n1 [compound 246, N-((6-(4-fluorophenyl)-4-(3-(trifluoromethyl)-1H-pyrazol-1-yl)pyridin-3-yl)methyl)acrylamide]	–	> 20000 nM	–	–	–	–
C=CC(=O)NCc1cnc(-c2ccc(F)cc2)cc1-n1ccc(C2CC2)n1 [compound 247, N-((4-(3-cyclopropyl-1H-pyrazol-1-yl)-6-(4-fluorophenyl)pyridin-3-yl)methyl)acrylamide]	–	< 1000 nM	–	–	–	–
C=CC(=O)NCc1cnc(-c2ccc(F)cc2)cc1-n1cc(C(F)(F)F)cn1 [compound 248, N-((6-(4-fluorophenyl)-4-(4-(trifluoromethyl)-1H-pyrazol-1-yl)pyridin-3-yl)methyl)acrylamide]	–	< 1000 nM	–	–	–	–
C=CC(=O)NCc1cnc(-c2ccc(F)cc2)cc1-n1nnnc1C [compound 250, N-((6-(4-fluorophenyl)-4-(5-methyl-1H-tetrazol-1-yl)pyridin-3-yl)methyl)acrylamide]	–	> 20000 nM	–	–	–	–
CCC(=O)NCc1cnc(-c2ccc(F)cc2)cc1-n1nnc(C)n1 [compound 251, N-((6-(4-fluorophenyl)-4-(5-methyl-2H-tetrazol-2-yl)pyridin-3-yl)methyl)propionamide]	–	> 20000 nM	–	–	–	–
CCC(=O)NCc1cnc(-c2ccc(F)cc2)cc1-n1nnnc1C [compound 252, N-((6-(4-fluorophenyl)-4-(5-methyl-1H-tetrazol-1-yl)pyridin-3-yl)methyl)propionamide]	–	> 20000 nM	–	–	–	–
CCC(=O)N1CCC(c2ccc(-c3ccc(F)cc3)cc2-c2ccn(C)n2)C1 (stereo not shown) [compound 259, 1-(3-(4′-fluoro-3-(1-methyl-1H-pyrazol-3-yl)-[1,1′-biphenyl]-4-yl)pyrrolidin-1-yl)propan-1-one]	–	1000 to 20000 nM	–	–	–	–
CS(=O)(=O)N1CCC(c2ccc(-c3ccc(F)cc3)cc2-c2ccn(C(F)F)n2)C1 (stereo not shown) [compound 260, 1-(difluoromethyl)-3-(4′-fluoro-4-(1-(methylsulfonyl)pyrrolidin-3-yl)-[1,1′-biphenyl]-3-yl)-1H-pyrazole]	–	> 20000 nM	–	–	–	–
CNS(=O)(=O)N1CCC(c2cnc(-c3ccc(F)cc3)cc2-c2ccn(C(F)F)n2)C1 (stereo not shown) [compound 263, 3-(4-(1-(difluoromethyl)-1H-pyrazol-3-yl)-6-(4-fluorophenyl)pyridin-3-yl)-N-methylpyrrolidine-1-sulfonamide]	–	> 20000 nM	–	–	–	–

The next lines start with the values.

EC50 (NCI-H2052; Homo sapiens, NCI-H2052, 144 h)	EC50 ([1]; Homo sapiens, HEK-293T)	EC50 (NCI-H226; Homo sapiens, 144 h)	EC50 (NCI-H2052)	EC50 [1]	EC50 (NCI-H226)	Compound
1000 to 10000 nM	< 1000 nM	< 1000 nM	–	–	–	C=CC(=O)NCc1cnc(C2CCC(F)(F)CC2)cc1-c1ccn(C(F)F)n1 [Cpd. No. 223, N-((6-(4,4-difluorocyclohexyl)-4-(1-(difluoromethyl)-1H-pyrazol-3-yl)pyridin-3-yl)methyl)acrylamide]
1000 to 10000 nM	< 1000 nM	< 1000 nM	–	–	–	C=CC(=O)NCc1cc(-c2ccc(F)cc2)cc(-c2ccn(C(F)F)n2)n1 [Cpd. No. 225, N-((6-(1-(difluoromethyl)-1H-pyrazol-3-yl)-4-(4-fluorophenyl)pyridin-2-yl)methyl)acrylamide]
> 10000 nM	< 1000 nM	< 1000 nM	–	–	–	C=CC(=O)NCc1cc(C2CCC(F)(F)CC2)cc(-c2ccn(C(F)F)n2)n1 [Cpd. No. 228, N-((4-(4,4-difluorocyclohexyl)-6-(1-(difluoromethyl)-1H-pyrazol-3-yl)pyridin-2-yl)methyl)acrylamide]
> 10000 nM	< 1000 nM	< 1000 nM	–	–	–	C=CC(=O)NCc1cnc(-c2ccc(F)cc2)cc1-c1cc2n(n1)CCCC2 [Cpd. No. 231, N-((6-(4-fluorophenyl)-4-(4,5,6,7-tetrahydropyrazolo[1,5-a]pyridin-2-yl)pyridin-3-yl)methyl)acrylamide]
1000 to 10000 nM	< 1000 nM	< 1000 nM	–	–	–	C=CC(=O)NCc1cnc(-c2ccc(F)cc2)cc1-n1nnc(C)n1 [Cpd. No. 249, N-((6-(4-fluorophenyl)-4-(5-methyl-2H-tetrazol-2-yl)pyridin-3-yl)methyl)acrylamide]
< 1000 nM	< 1000 nM	< 1000 nM	–	–	–	C=CC(=O)NCc1cnc(-c2ccc(F)cc2)nc1-c1ccn(C)n1 [Cpd. No. 253, N-((2-(4-fluorophenyl)-4-(1-methyl-1H-pyrazol-3-yl)pyrimidin-5-yl)methyl)acrylamide]
1000 to 10000 nM	< 1000 nM	< 1000 nM	–	–	–	C=CC(=O)NCc1cc(-c2ccc(F)cc2)nc(-c2ccn(C(F)F)n2)n1 [Cpd. No. 255, N-((2-(1-(difluoromethyl)-1H-pyrazol-3-yl)-6-(4-fluorophenyl)pyrimidin-4-yl)methyl)acrylamide]
< 1000 nM	< 1000 nM	< 1000 nM	–	–	–	C=CC(=O)N1CCC(c2ccc(-c3ccc(F)cc3)cc2-c2ccn(C)n2)C1 (stereo not shown) [Cpd. No. 258, 1-(3-(4′-fluoro-3-(1-methyl-1H-pyrazol-3-yl)-[1,1′-biphenyl]-4-yl)pyrrolidin-1-yl)prop-2-en-1-one]
–	< 1000 nM	< 1000 nM	1000 to 10000 nM	–	–	C=CC(=O)N1CCC(c2ccc(-c3ccc(F)cc3)cc2-c2ccn(C(F)F)n2)C1 (stereo not shown) [Cpd. No. 261, 1-(3-(3-(1-(difluoromethyl)-1H-pyrazol-3-yl)-4′-fluoro-[1,1′-biphenyl]-4-yl)pyrrolidin-1-yl)prop-2-en-1-one]
–	< 1000 nM	< 1000 nM	1000 to 10000 nM	–	–	C=CC(=O)N1CCC(c2cnc(-c3ccc(F)cc3)cc2-c2ccn(C(F)F)n2)C1 (stereo not shown) [Cpd. No. 262, 1-(3-(4-(1-(difluoromethyl)-1H-pyrazol-3-yl)-6-(4-fluorophenyl)pyridin-3-yl)pyrrolidin-1-yl)prop-2-en-1-one]
–	< 1000 nM	1000 to 10000 nM	–	–	–	C=CC(=O)Nc1cncc(-c2cccc(-c3ccn(Cc4ccccc4)n3)c2)c1 [compound 004, N-(5-(3-(1-benzyl-1H-pyrazol-3-yl)phenyl)pyridin-3-yl)acrylamide]
–	< 1000 nM	< 1000 nM	–	–	–	NS(=O)(=O)CCNc1ccc(-c2ccccc2)cc1-c1ccn(Cc2cccnc2)n1 [compound 054, 2-((3-(1-(pyridin-3-ylmethyl)-1H-pyrazol-3-yl)-[1,1′-biphenyl]-4-yl)amino)ethane-1-sulfonamide]
